According to patent publication US20250228239A1, “MOLECULES HAVING PESTICIDAL UTILITY, AND INTERMEDIATES, COMPOSITIONS, AND PROCESSES, RELATED THERETO” (priority 2024, published 2025):

How the values were obtained:
[1] = tested on: Beet Armyworm (Spodoptera exigua, LAPHEG); assay: Bioassays on Beet Armyworm (BAW), 128-well diet tray assay; format: in vivo; conditions: Spodoptera exigua; Beet Armyworm; rating class; read-out: BAW
Summary of the method: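 Test molecule was dissolved in 90:10 acetone-water and applied at 50 μg/cm^2 onto artificial diet in eight wells, then dried. Second instar larvae, one to five per well, were added, and trays were kept vented at 25° C. with a 14:10 photoperiod for five to seven days before mortality was recorded.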

[2] = tested on: Cabbage Looper (Trichoplusia ni, TRIPNI); assay: Bioassays on Cabbage Looper (CL), 128-well diet tray assay; format: in vivo; conditions: Trichoplusia ni; Cabbage Looper; rating class; read-out: CL
Summary of the method: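 Second-instar larvae (1–5 per well) placed on artificial diet surface-treated with 50 μg/cm^2 test molecule applied in 90:10 acetone-water and dried. Held at 25° C., 14:10 light-dark, for five to seven days. Percent mortality scored per well and averaged over eight wells.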

Compound | pest or weed control at 50 µg/cm2 [1] | pest or weed control at 50 µg/cm2 [2]
O=C(Nc1ccc(F)c(NC(=O)C(F)F)c1F)c1cc(NC(=O)[C@H]2[C@H](c3cc(Cl)c(Cl)c(Cl)c3)C2(Cl)Cl)ccc1F [F1527, 5-((1R,3R)-2,2-Dichloro-3-(3,4,5-trichlorophenyl)cyclopropane-1-carboxamido)-N-(3-(2,2-difluoroacetamido)-2,4-difluorophenyl)-2-fluorobenzamide] | 50 to 100% | 50 to 100%
CC(=O)Nc1c(F)ccc(NC(=O)c2cc(NC(=O)[C@H]3[C@H](c4cc(Cl)c(Cl)c(Cl)c4)C3(Cl)Cl)ccc2Cl)c1F [F1532, N-(3-Acetamido-2,4-difluorophenyl)-2-chloro-5-((1R,3R)-2,2-dichloro-3-(3,4,5-trichlorophenyl)cyclopropane-1-carboxamido)benzamide] | 50 to 100% | 50 to 100%
O=C(Nc1ccc(F)c(NC(=O)C(F)(F)F)c1F)c1cc(NC(=O)[C@H]2[C@H](c3cc(Cl)c(Cl)c(Cl)c3)C2(Cl)Cl)ccc1Cl [F1533, 2-Chloro-5-((1R,3R)-2,2-dichloro-3-(3,4,5-trichlorophenyl)cyclopropane-1-carboxamido)-N-(2,4-difluoro-3-(2,2,2-trifluoroacetamido)phenyl)benzamide] | 50 to 100% | 50 to 100%
O=C(Nc1c(F)ccc(NC(=O)C(F)(F)C(F)F)c1F)c1cc(NC(=O)[C@H]2[C@H](c3cc(Cl)c(Cl)c(Cl)c3)C2(Cl)Cl)ccc1Cl [F1534, 2-Chloro-5-((1R,3R)-2,2-dichloro-3-(3,4,5-trichlorophenyl)cyclopropane-1-carboxamido)-N-(2,6-difluoro-3-(2,2,3,3-tetrafluoropropanamido)phenyl)benzamide] | 50 to 100% | 50 to 100%
O=C(Nc1c(F)ccc(NC(=O)C(F)(F)C(F)F)c1F)c1cc(NC(=O)[C@H]2[C@H](c3ccc(Cl)c(Cl)c3)C2(Cl)Cl)ccc1Cl [F1535, 2-Chloro-5-((1R,3R)-2,2-dichloro-3-(3,4-dichlorophenyl)cyclopropane-1-carboxamido)-N-(2,6-difluoro-3-(2,2,3,3-tetrafluoropropanamido)phenyl)benzamide] | 50 to 100% | 50 to 100%
CC(=O)Nc1ccc(F)c(NC(=O)c2cc(NC(=O)[C@H]3[C@H](c4ccc(Cl)c(Cl)c4)C3(Cl)Cl)ccc2Cl)c1F [F1536, N-(3-Acetamido-2,6-difluorophenyl)-2-chloro-5-((1R,3R)-2,2-dichloro-3-(3,4-dichlorophenyl)cyclopropane-1-carboxamido)benzamide] | 50 to 100% | 50 to 100%
O=C(Nc1c(F)ccc(NC(=O)C(F)(F)F)c1F)c1cc(NC(=O)[C@H]2[C@H](c3ccc(Cl)c(Cl)c3)C2(Cl)Cl)ccc1Cl [F1537, 2-Chloro-5-((1R,3R)-2,2-dichloro-3-(3,4-dichlorophenyl)cyclopropane-1-carboxamido)-N-(2,6-difluoro-3-(2,2,2-trifluoroacetamido)phenyl)benzamide] | 50 to 100% | 50 to 100%
O=C(Nc1c(F)ccc(NC(=O)C(F)(F)F)c1F)c1cc(NC(=O)[C@H]2[C@H](c3ccc(F)c(C(F)(F)F)c3)C2(Cl)Cl)ccc1Cl [F1538, 2-Chloro-5-((1R,3R)-2,2-dichloro-3-(4-fluoro-3-(trifluoromethyl)phenyl)cyclopropane-1-carboxamido)-N-(2,6-difluoro-3-(2,2,2-trifluoroacetamido)phenyl)benzamide] | 50 to 100% | 50 to 100%
CC(=O)Nc1cc(NC(=O)c2cc(NC(=O)[C@H]3[C@H](c4ccc(F)c(C(F)(F)F)c4)C3(Cl)Cl)ccc2Cl)c(F)cc1F [F1539, N-(5-Acetamido-2,4-difluorophenyl)-2-chloro-5-((1R,3R)-2,2-dichloro-3-(4-fluoro-3-(trifluoromethyl)phenyl)cyclopropane-1-carboxamido)benzamide] | 50 to 100% | 50 to 100%
O=C(Nc1cc(NC(=O)C(F)F)c(F)cc1F)c1cc(NC(=O)[C@H]2[C@H](c3ccc(F)c(C(F)(F)F)c3)C2(Cl)Cl)ccc1Cl [F1540, 2-Chloro-5-((1R,3R)-2,2-dichloro-3-(4-fluoro-3-(trifluoromethyl)phenyl)cyclopropane-1-carboxamido)-N-(5-(2,2-difluoroacetamido)-2,4-difluorophenyl)benzamide] | 50 to 100% | 50 to 100%
O=C(Nc1cc(NC(=O)C(F)(F)F)c(F)cc1F)c1cc(NC(=O)[C@H]2[C@H](c3ccc(F)c(C(F)(F)F)c3)C2(Cl)Cl)ccc1Cl [F1541, 2-Chloro-5-((1R,3R)-2,2-dichloro-3-(4-fluoro-3-(trifluoromethyl)phenyl)cyclopropane-1-carboxamido)-N-(2,4-difluoro-5-(2,2,2-trifluoroacetamido)phenyl)benzamide] | 50 to 100% | 50 to 100%
CC(=O)Nc1c(F)ccc(NC(=O)c2cc(NC(=O)[C@H]3[C@H](c4ccc(Cl)c(Cl)c4)C3(Cl)Cl)cc(C)c2Cl)c1F [F1543, N-(3-Acetamido-2,4-difluorophenyl)-2-chloro-5-((1R,3R)-2,2-dichloro-3-(3,4-dichlorophenyl)cyclopropane-1-carboxamido)-3-methylbenzamide] | 50 to 100% | 50 to 100%
CC(=O)Nc1c(F)ccc(NC(=O)c2cc(NC(=O)[C@H]3[C@H](c4cc(Cl)c(Cl)c(Cl)c4)C3(Cl)Cl)cc(C)c2Cl)c1F [F1544, N-(3-Acetamido-2,4-difluorophenyl)-2-chloro-5-((1R,3R)-2,2-dichloro-3-(3,4,5-trichlorophenyl)cyclopropane-1-carboxamido)-3-methylbenzamide] | 50 to 100% | 50 to 100%
CC(=O)Nc1c(F)ccc(NC(=O)c2cc(NC(=O)[C@H]3[C@H](c4ccc(F)c(C(F)(F)F)c4)C3(Cl)Cl)cc(C)c2Cl)c1F [F1545, N-(3-acetamido-2,4-difluorophenyl)-2-chloro-5-((1R,3R)-2,2-dichloro-3-(4-fluoro-3-(trifluoromethyl)phenyl)cyclopropane-1-carboxamido)-3-methylbenzamide] | 50 to 100% | 50 to 100%
CC(=O)Nc1cc(NC(=O)c2cc(NC(=O)[C@H]3[C@H](c4ccc(Cl)c(Cl)c4)C3(Cl)Cl)cc(C)c2Cl)c(F)cc1F [F1546, N-(5-Acetamido-2,4-difluorophenyl)-2-chloro-5-((1R,3R)-2,2-dichloro-3-(3,4-dichlorophenyl)cyclopropane-1-carboxamido)-3-methylbenzamide] | 50 to 100% | 50 to 100%
CC(=O)Nc1cc(NC(=O)c2cc(NC(=O)[C@H]3[C@H](c4cc(Cl)c(Cl)c(Cl)c4)C3(Cl)Cl)cc(C)c2Cl)c(F)cc1F [F1547] | 50 to 100% | 50 to 100%
CC(=O)Nc1cc(NC(=O)c2cc(NC(=O)[C@H]3[C@H](c4ccc(F)c(C(F)(F)F)c4)C3(Cl)Cl)cc(C)c2Cl)c(F)cc1F [F1548, N-(5-Acetamido-2,4-difluorophenyl)-2-chloro-5-((1R,3R)-2,2-dichloro-3-(4-fluoro-3-(trifluoromethyl)phenyl)cyclopropane-1-carboxamido)-3-methylbenzamide] | 50 to 100% | 50 to 100%
CNc1c(F)ccc(NC(=O)c2cc(NC(=O)[C@H]3[C@H](c4ccc(Cl)c(Cl)c4)C3(Cl)Cl)ccc2Cl)c1F [F1550, 2-Chloro-5-((1R,3R)-2,2-dichloro-3-(3,4-dichlorophenyl)cyclopropane-1-carboxamido)-N-(2,4-difluoro-3-(methylamino)phenyl)benzamide] | 50 to 100% | 50 to 100%
O=C(Nc1c(F)ccc(NC(=O)C(F)(F)C(F)F)c1F)c1cc(NC(=O)[C@H]2[C@H](c3ccc(F)c(C(F)(F)F)c3)C2(Cl)Cl)ccc1Cl [F1564, 2-Chloro-5-((1R,3R)-2,2-dichloro-3-(4-fluoro-3-(trifluoromethyl)phenyl)cyclopropane-1-carboxamido)-N-(2,6-difluoro-3-(2,2,3,3-tetrafluoropropanamido)phenyl)benzamide] | 50 to 100% | 50 to 100%
O=C(Nc1cc(NC(=O)C(F)(F)C(F)F)c(F)cc1F)c1cc(NC(=O)[C@H]2[C@H](c3ccc(Cl)c(Cl)c3)C2(Cl)Cl)ccc1Cl [F1565, 2-Chloro-5-((1R,3R)-2,2-dichloro-3-(3,4-dichlorophenyl)cyclopropane-1-carboxamido)-N-(2,4-difluoro-5-(2,2,3,3-tetrafluoropropanamido)phenyl)benzamide] | 50 to 100% | 50 to 100%
Nc1cc(NC(=O)c2cc(NC(=O)[C@H]3[C@H](c4ccc(F)c(C(F)(F)F)c4)C3(Cl)Cl)ccc2Cl)c(F)cc1F [F1566, N-(5-Amino-2,4-difluorophenyl)-2-chloro-5-((1R,3R)-2,2-dichloro-3-(4-fluoro-3-(trifluoromethyl)phenyl)cyclopropane-1-carboxamido)benzamide] | 50 to 100% | 50 to 100%
O=C(Nc1ccc(F)c(NC(=O)C(F)(F)C(F)F)c1F)c1cc(NC(=O)[C@H]2[C@H](c3cc(Cl)c(Cl)c(Cl)c3)C2(Cl)Cl)ccc1Cl [F1567, 2-Chloro-5-((1R,3R)-2,2-dichloro-3-(3,4,5-trichlorophenyl)cyclopropane-1-carboxamido)-N-(2,4-difluoro-3-(2,2,3,3-tetrafluoropropanamido)phenyl)benzamide] | 50 to 100% | 50 to 100%
